“And” between values parts separate entries of the source, which are not always exact repeats. Equal values may be shown once.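 A five-concentration, 48-hour dose response in 96-well plates underlies each endpoint, interpolated linearly between surrounding concentrations. GI50: concentration for 50% inhibition of growth. TGI marks complete inhibition of growth.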
Assays:
Assay in all cases: NCI tumour cell line growth inhibition, 48 h
BT-549 breast = tested on: BT-549 breast
HS 578T breast = tested on: HS 578T breast
K-562 leukemia = tested on: K-562 leukemia
M14 melanoma = tested on: M14 melanoma
MALME-3M melanoma = tested on: MALME-3M melanoma
MDA-N = tested on: MDA-N
OVCAR-3 ovarian = tested on: OVCAR-3 ovarian
PC-3 prostate = tested on: PC-3 prostate
SK-MEL-5 melanoma = tested on: SK-MEL-5 melanoma
SNB-19 CNS = tested on: SNB-19 CNS

Compound CC(O)(C(=O)N(O)c1ccc(Cl)cc1)c1ccc(Cl)cc1 (centres undefined) has a TGI (BT-549 breast) of 61.5 µM, a TGI (HS 578T breast) of 62.4 µM and a TGI (K-562 leukemia) of 43.1 µM. For the same compound, the TGI (M14 melanoma) was > 100 µM, the TGI (MALME-3M melanoma) was > 100 µM and the TGI (MDA-N) was > 100 µM. The TGI (OVCAR-3 ovarian) was 72.8 µM, the TGI (PC-3 prostate) was 73 µM and the TGI (SK-MEL-5 melanoma) was 48.9 µM. For the same compound, the TGI (SNB-19 CNS) was > 100 µM.

For COC(=O)C1=C(C(=O)OC)C2(C)CCC(=O)C1O2 (centres undefined), the TGI (BT-549 breast) was > 10 µM, the TGI (HS 578T breast) was > 10 µM and the TGI (K-562 leukemia) was > 10 µM. For the same compound, the TGI (M14 melanoma) was > 10 µM, the TGI (MALME-3M melanoma) was > 10 µM and the TGI (MDA-N) was > 10 µM. The TGI (OVCAR-3 ovarian) was > 10 µM, the TGI (PC-3 prostate) was > 10 µM and the TGI (SK-MEL-5 melanoma) was > 10 µM. For the same compound, the TGI (SNB-19 CNS) was > 10 µM.

Cc1ccc2c(c1)C(=O)/C(=C\c1ccc(Cl)cc1)CCS2(=O)=O was tested, and the TGI (BT-549 breast) was 12.7 µM, the TGI (HS 578T breast) was > 31.5 µM and the TGI (K-562 leukemia) was 3.32 µM. The TGI (M14 melanoma) was > 34.4 µM, the TGI (MALME-3M melanoma) was 6.42 µM and the TGI (MDA-N) was > 36.5 µM. The TGI (OVCAR-3 ovarian) was 19.5 µM, the TGI (PC-3 prostate) was 39.1 µM and the TGI (SK-MEL-5 melanoma) was 7.8 µM. For the same compound, the TGI (SNB-19 CNS) was 6.82 µM.

CCOC(=O)c1[nH]c2nc(SC)nc(NC)c2c1N was tested, and the TGI (BT-549 breast) was > 100 µM, the TGI (HS 578T breast) was > 100 µM and the TGI (K-562 leukemia) was > 100 µM. For the same compound, the TGI (M14 melanoma) was > 100 µM, the TGI (MALME-3M melanoma) was > 100 µM and the TGI (MDA-N) was > 100 µM. The TGI (OVCAR-3 ovarian) was > 100 µM, the TGI (PC-3 prostate) was > 100 µM and the TGI (SK-MEL-5 melanoma) was > 100 µM. For the same compound, the TGI (SNB-19 CNS) was > 100 µM.

With O=[N+]([O-])c1ccc2nc3c(nc2c1)-c1c2ccccc2cc2cccc-3c12 the TGI (BT-549 breast) was 17.9 µM, the TGI (HS 578T breast) was 33 µM and the TGI (K-562 leukemia) was > 85.9 µM. For the same compound, the TGI (M14 melanoma) was > 91.7 µM, the TGI (MALME-3M melanoma) was 76.5 µM and the TGI (MDA-N) was 47.9 µM. For the same compound, the TGI (OVCAR-3 ovarian) was 51.7 µM, the TGI (PC-3 prostate) was > 66.6 µM and the TGI (SK-MEL-5 melanoma) was > 100 µM. For the same compound, the TGI (SNB-19 CNS) was > 54.5 µM.

With O=S1(=O)c2ccccc2NC(=S)N1c1ccccc1 the TGI (BT-549 breast) was 99.2 µM, the TGI (HS 578T breast) was > 100 µM and the TGI (K-562 leukemia) was > 100 µM. The TGI (M14 melanoma) was > 100 µM, the TGI (MALME-3M melanoma) was > 100 µM and the TGI (MDA-N) was > 80.9 µM. The TGI (OVCAR-3 ovarian) was > 100 µM, the TGI (PC-3 prostate) was > 100 µM and the TGI (SK-MEL-5 melanoma) was > 100 µM. For the same compound, the TGI (SNB-19 CNS) was > 100 µM.

With O=c1c(Cc2ccccc2)c(-c2ccccc2)[nH]n1C1=NCCN1 the TGI (BT-549 breast) was > 100 µM, the TGI (HS 578T breast) was > 100 µM and the TGI (K-562 leukemia) was > 100 µM. For the same compound, the TGI (M14 melanoma) was > 100 µM, the TGI (MALME-3M melanoma) was > 100 µM and the TGI (MDA-N) was > 100 µM. The TGI (OVCAR-3 ovarian) was > 100 µM, the TGI (PC-3 prostate) was > 100 µM and the TGI (SK-MEL-5 melanoma) was > 100 µM. For the same compound, the TGI (SNB-19 CNS) was > 100 µM.

COCC(=O)OC1CCn2c1nc1c2C(=O)C(C)=C(NC(C)=O)C1=O (centres undefined) was tested, and the TGI (BT-549 breast) was 24.4 µM, the TGI (HS 578T breast) was 16.8 µM and the GI50 (K-562 leukemia) was 3.23 µM. The TGI (K-562 leukemia) was 11.9 µM, the TGI (M14 melanoma) was 21.7 µM and the GI50 (MALME-3M melanoma) was 2.37 µM. The TGI (MALME-3M melanoma) was 4.94 µM and 6.11 µM, the TGI (MDA-N) was 3.39 µM and 3.4 µM and the GI50 (OVCAR-3 ovarian) was 1.9 µM. The TGI (OVCAR-3 ovarian) was 5.23 µM and 4.82 µM, the GI50 (PC-3 prostate) was 3.56 µM and the TGI (PC-3 prostate) was 7.68 µM. The TGI (SK-MEL-5 melanoma) was 26.8 µM and the TGI (SNB-19 CNS) was 40.5 µM.

In the case of COP(=O)(CC(=O)C1OC(OCc2ccccc2)C(OCc2ccccc2)C(OCc2ccccc2)C1OCc1ccccc1)OC (centres undefined), the TGI (BT-549 breast) is reported as 71.2 µM, the TGI (HS 578T breast) is reported as > 100 µM and the TGI (K-562 leukemia) is reported as > 100 µM. It also gave a TGI (M14 melanoma) of 70 µM, a TGI (MALME-3M melanoma) of 94.5 µM and a TGI (MDA-N) of 20.3 µM. For the same compound, the TGI (OVCAR-3 ovarian) was > 100 µM, the TGI (PC-3 prostate) was > 100 µM and the TGI (SK-MEL-5 melanoma) was 16.8 µM. For the same compound, the TGI (SNB-19 CNS) was > 100 µM.

CCOC(=O)c1ccc(C(=O)/C(C(=O)OC(C)(C)C)=C2\CCCN2C)n1C was tested, and the TGI (BT-549 breast) was > 100 µM, the TGI (HS 578T breast) was > 100 µM and the TGI (K-562 leukemia) was > 100 µM. The TGI (M14 melanoma) was > 100 µM, the TGI (MALME-3M melanoma) was > 100 µM and the TGI (MDA-N) was > 100 µM. For the same compound, the TGI (OVCAR-3 ovarian) was > 100 µM, the TGI (PC-3 prostate) was > 100 µM and the TGI (SK-MEL-5 melanoma) was 52.9 µM. The TGI (SNB-19 CNS) was > 100 µM.

CC(C)(C)c1ccc2c(c1)OCc1n[nH]c(n1)COc1cc(C(C)(C)C)ccc1OCCOCCO2 was tested, and the TGI (BT-549 breast) was 10.9 µM, the TGI (HS 578T breast) was 9.16 µM and the TGI (K-562 leukemia) was > 100 µM. The TGI (M14 melanoma) was 13.5 µM, the TGI (MALME-3M melanoma) was 7.62 µM and the TGI (MDA-N) was 12.3 µM. For the same compound, the TGI (OVCAR-3 ovarian) was 7.47 µM, the TGI (PC-3 prostate) was 7.59 µM and the TGI (SK-MEL-5 melanoma) was 4.68 µM. For the same compound, the TGI (SNB-19 CNS) was 13.4 µM.

For CCOC(=O)Cc1nn2c(=O)cc(C)nc2s1, the TGI (BT-549 breast) was > 100 µM, the TGI (HS 578T breast) was > 100 µM and the TGI (K-562 leukemia) was > 100 µM. For the same compound, the TGI (M14 melanoma) was > 100 µM, the TGI (MALME-3M melanoma) was > 100 µM and the TGI (MDA-N) was > 100 µM. For the same compound, the TGI (OVCAR-3 ovarian) was > 100 µM, the TGI (PC-3 prostate) was > 100 µM and the TGI (SK-MEL-5 melanoma) was > 100 µM. For the same compound, the TGI (SNB-19 CNS) was > 100 µM.

— PubChem BioAssay (NCI)
